Assay results published in US8614236B2 (University of Washington, priority 2006, dated 2013).

Key:
unanesthetized dogs = assay: Effect of inhaled acetazolamide in unanesthetized dogs during hypoxia (vs iv and oral); type: in vivo, dog
Beagle dogs = conditions: iv 10 mg·kg^−1·h^−1; Höhne 2004; cited from earlier work
[1] = inhaled 750 mg after 1 h of normoxia, hypoxia 2nd h
[2] = inhaled 750 mg after 1 h of normoxia, hypoxia 3rd h
[3] = inhaled 750 mg after 1 h of normoxia, normoxia 1st h
[4] = iv 2 mg/kg bolus + 2 mg/kg/h, hypoxia 2nd h
[5] = iv 2 mg/kg bolus + 2 mg/kg/h, hypoxia 3rd h
[6] = iv 2 mg/kg bolus + 2 mg/kg/h, normoxia 1st h
[7] = oral 5 mg/kg -12 h and -1 h, hypoxia 2nd h
[8] = oral 5 mg/kg -12 h and -1 h, hypoxia 3rd h
[9] = oral 5 mg/kg -12 h and -1 h, normoxia 1st h

`CC(=O)Nc1nnc(S(N)(=O)=O)s1` [AZ, acetazolamide] gave a BEa (unanesthetized dogs; [1]) of -5.2 ± 0.6 mM, a CO (unanesthetized dogs; [1]) of 2.3 ± 0.2 L/min and a CVP (unanesthetized dogs; [1]) of 2.5 ± 0.3 cmH2O. The GFR (unanesthetized dogs; [1]) was 3.7 ± 0.3 mL·min, the HCO3a (unanesthetized dogs; [1]) was 17.1 ± 0.6 mM and the HR (unanesthetized dogs; [1]) was 86 ± 6 beats/min. It also gave an MAP (unanesthetized dogs; [1]) of 105 ± 5 mmHg, an MPAP (unanesthetized dogs; [1]) of 15 ± 1 mmHg and a PCWP (unanesthetized dogs; [1]) of 3.9 ± 0.4 cmH2O. The PVR (unanesthetized dogs; [1]) was 395 ± 29 dyn s^−1 cm, the PaCO2 (unanesthetized dogs; [1]) was 26 ± 1 Torr and the PaO2 (unanesthetized dogs; [1]) was 39 ± 1 Torr. The UNaV (unanesthetized dogs; [1]) was 8.0 ± 1.3 µmol·min, the UV (unanesthetized dogs; [1]) was 99 ± 16 μ min^−1 kg^−1 and the VE (unanesthetized dogs; [1]) was 5.5 ± 0.5 L/min. The BEa (unanesthetized dogs; [2]) was -5.7 ± 0.7 mM, the CO (unanesthetized dogs; [2]) was 2.5 ± 0.1 L/min and the CVP (unanesthetized dogs; [2]) was 2.1 ± 0.2 cmH2O. For the same compound, the GFR (unanesthetized dogs; [2]) was 3.6 ± 0.3 mL·min, the HCO3a (unanesthetized dogs; [2]) was 16.4 ± 0.5 mM and the HR (unanesthetized dogs; [2]) was 100 ± 8 beats/min. For the same compound, the MAP (unanesthetized dogs; [2]) was 105 ± 5 mmHg, the MPAP (unanesthetized dogs; [2]) was 15 ± 1 mmHg and the PCWP (unanesthetized dogs; [2]) was 3.6 ± 0.2 cmH2O. For the same compound, the PVR (unanesthetized dogs; [2]) was 388 ± 30 dyn s^−1 cm, the PaCO2 (unanesthetized dogs; [2]) was 25 ± 1 Torr and the PaO2 (unanesthetized dogs; [2]) was 36 ± 1 Torr. For the same compound, the UNaV (unanesthetized dogs; [2]) was 5.1 ± 0.7 µmol·min, the UV (unanesthetized dogs; [2]) was 81 ± 15 μ min^−1 kg^−1 and the VE (unanesthetized dogs; [2]) was 5.7 ± 0.4 L/min. For the same compound, the BEa (unanesthetized dogs; [3]) was -3.9 ± 0.6 mM, the CO (unanesthetized dogs; [3]) was 2.5 ± 0.1 L/min and the CVP (unanesthetized dogs; [3]) was 2.8 ± 0.3 cmH2O. For the same compound, the GFR (unanesthetized dogs; [3]) was 4.0 ± 0.4 mL·min, the HCO3a (unanesthetized dogs; [3]) was 20.2 ± 0.5 mM and the HR (unanesthetized dogs; [3]) was 85 ± 5 beats/min. It also gave an MAP (unanesthetized dogs; [3]) of 92 ± 4 mmHg, an MPAP (unanesthetized dogs; [3]) of 13 ± 1 mmHg and a PCWP (unanesthetized dogs; [3]) of 4.3 ± 0.4 cmH2O. It also gave a PVR (unanesthetized dogs; [3]) of 298 ± 21 dyn s^−1 cm, a PaCO2 (unanesthetized dogs; [3]) of 36 ± 1 Torr and a PaO2 (unanesthetized dogs; [3]) of 101 ± 2 Torr. For the same compound, the UNaV (unanesthetized dogs; [3]) was 0.4 ± 0.1 µmol·min, the UV (unanesthetized dogs; [3]) was 33 ± 8 μ min^−1 kg^−1 and the VE (unanesthetized dogs; [3]) was 3.2 ± 0.2 L/min. The “pulmonary vascular response to hypoxia” value (unanesthetized dogs; inhaled, 12% oxygen for two hours) was “successful in reducing”, the BEa (unanesthetized dogs; [4]) was -4.6 ± 0.4 mM and the CO (unanesthetized dogs; [4]) was 3.0 ± 0.4 L/min. The CVP (unanesthetized dogs; [4]) was 2.2 ± 0.3 cmH2O, the GFR (unanesthetized dogs; [4]) was 3.4 ± 0.3 mL·min and the HCO3a (unanesthetized dogs; [4]) was 18.5 ± 0.5 mM. It also gave an HR (unanesthetized dogs; [4]) of 103 ± 6 beats/min, an MAP (unanesthetized dogs; [4]) of 102 ± 8 mmHg and an MPAP (unanesthetized dogs; [4]) of 15 ± 1 mmHg. The PCWP (unanesthetized dogs; [4]) was 3.5 ± 0.3 cmH2O, the PVR (unanesthetized dogs; [4]) was 312 ± 36 dyn s^−1 cm and the PaCO2 (unanesthetized dogs; [4]) was 30 ± 1 Torr. The PaO2 (unanesthetized dogs; [4]) was 37 ± 1 Torr, the UNaV (unanesthetized dogs; [4]) was 4.0 ± 0.6 µmol·min and the UV (unanesthetized dogs; [4]) was 135 ± 27 μ min^−1 kg^−1. It also gave a VE (unanesthetized dogs; [4]) of 6.5 ± 0.5 L/min, a BEa (unanesthetized dogs; [5]) of -6.1 ± 0.6 mM and a CO (unanesthetized dogs; [5]) of 2.9 ± 0.5 L/min. The CVP (unanesthetized dogs; [5]) was 2.3 ± 0.4 cmH2O, the GFR (unanesthetized dogs; [5]) was 3.8 ± 0.3 mL·min and the HCO3a (unanesthetized dogs; [5]) was 17.1 ± 0.5 mM. For the same compound, the HR (unanesthetized dogs; [5]) was 106 ± 7 beats/min, the MAP (unanesthetized dogs; [5]) was 103 ± 7 mmHg and the MPAP (unanesthetized dogs; [5]) was 14 ± 1 mmHg. It also gave a PCWP (unanesthetized dogs; [5]) of 3.7 ± 0.3 cmH2O, a PVR (unanesthetized dogs; [5]) of 305 ± 26 dyn s^−1 cm and a PaCO2 (unanesthetized dogs; [5]) of 27 ± 1 Torr. The PaO2 (unanesthetized dogs; [5]) was 38 ± 1 Torr, the UNaV (unanesthetized dogs; [5]) was 5.4 ± 1.2 µmol·min and the UV (unanesthetized dogs; [5]) was 68 ± 12 μ min^−1 kg^−1. The VE (unanesthetized dogs; [5]) was 6.9 ± 0.5 L/min, the BEa (unanesthetized dogs; [6]) was -4.0 ± 0.5 mM and the CO (unanesthetized dogs; [6]) was 2.6 ± 0.2 L/min. The CVP (unanesthetized dogs; [6]) was 1.8 ± 0.3 cmH2O, the GFR (unanesthetized dogs; [6]) was 3.5 ± 0.3 mL·min and the HCO3a (unanesthetized dogs; [6]) was 20.2 ± 0.4 mM. The HR (unanesthetized dogs; [6]) was 74 ± 4 beats/min, the MAP (unanesthetized dogs; [6]) was 95 ± 5 mmHg and the MPAP (unanesthetized dogs; [6]) was 13 ± 1 mmHg. It also gave a PCWP (unanesthetized dogs; [6]) of 3.8 ± 0.5 cmH2O, a PVR (unanesthetized dogs; [6]) of 283 ± 37 dyn s^−1 cm and a PaCO2 (unanesthetized dogs; [6]) of 34 ± 1 Torr. It also gave a PaO2 (unanesthetized dogs; [6]) of 107 ± 3 Torr, a UNaV (unanesthetized dogs; [6]) of 3.8 ± 0.6 µmol·min and a UV (unanesthetized dogs; [6]) of 102 ± 12 μ min^−1 kg^−1. It also gave a VE (unanesthetized dogs; [6]) of 4.1 ± 0.4 L/min, a BEa (unanesthetized dogs; [7]) of -6.3 ± 0.6 mM and a CO (unanesthetized dogs; [7]) of 2.7 ± 0.2 L/min. It also gave a CVP (unanesthetized dogs; [7]) of 1.9 ± 0.2 cmH2O, a GFR (unanesthetized dogs; [7]) of 3.3 ± 0.2 mL·min and an HCO3a (unanesthetized dogs; [7]) of 16.7 ± 0.6 mM. It also gave an HR (unanesthetized dogs; [7]) of 109 ± 5 beats/min, an MAP (unanesthetized dogs; [7]) of 106 ± 6 mmHg and an MPAP (unanesthetized dogs; [7]) of 17 ± 1 mmHg. It also gave a PCWP (unanesthetized dogs; [7]) of 3.5 ± 0.3 cmH2O, a PVR (unanesthetized dogs; [7]) of 375 ± 33 dyn s^−1 cm and a PaCO2 (unanesthetized dogs; [7]) of 28 ± 1 Torr. The PaO2 (unanesthetized dogs; [7]) was 37 ± 1 Torr, the UNaV (unanesthetized dogs; [7]) was 1.7 ± 0.5 µmol·min and the UV (unanesthetized dogs; [7]) was 84 ± 15 μ min^−1 kg^−1. For the same compound, the VE (unanesthetized dogs; [7]) was 6.6 ± 0.4 L/min, the BEa (unanesthetized dogs; [8]) was -6.4 ± 0.4 mM and the CO (unanesthetized dogs; [8]) was 2.3 ± 0.1 L/min. The CVP (unanesthetized dogs; [8]) was 1.9 ± 0.2 cmH2O, the GFR (unanesthetized dogs; [8]) was 3.3 ± 0.2 mL·min and the HCO3a (unanesthetized dogs; [8]) was 16.1 ± 0.4 mM. The HR (unanesthetized dogs; [8]) was 102 ± 7 beats/min, the MAP (unanesthetized dogs; [8]) was 107 ± 6 mmHg and the MPAP (unanesthetized dogs; [8]) was 17 ± 1 mmHg. The PCWP (unanesthetized dogs; [8]) was 3.5 ± 0.3 cmH2O, the PVR (unanesthetized dogs; [8]) was 431 ± 45 dyn s^−1 cm and the PaCO2 (unanesthetized dogs; [8]) was 26 ± 1 Torr. For the same compound, the PaO2 (unanesthetized dogs; [8]) was 37 ± 1 Torr, the UNaV (unanesthetized dogs; [8]) was 1.5 ± 0.4 µmol·min and the UV (unanesthetized dogs; [8]) was 55 ± 8 μ min^−1 kg^−1. The VE (unanesthetized dogs; [8]) was 6.3 ± 0.2 L/min, the BEa (unanesthetized dogs; [9]) was -6.5 ± 0.3 mM and the CO (unanesthetized dogs; [9]) was 2.3 ± 0.2 L/min. It also gave a CVP (unanesthetized dogs; [9]) of 2.3 ± 0.3 cmH2O, a GFR (unanesthetized dogs; [9]) of 3.0 ± 0.2 mL·min and an HCO3a (unanesthetized dogs; [9]) of 17.6 ± 0.3 mM. For the same compound, the HR (unanesthetized dogs; [9]) was 85 ± 3 beats/min, the MAP (unanesthetized dogs; [9]) was 95 ± 3 mmHg and the MPAP (unanesthetized dogs; [9]) was 12 ± 1 mmHg. The PCWP (unanesthetized dogs; [9]) was 3.9 ± 0.3 cmH2O, the PVR (unanesthetized dogs; [9]) was 298 ± 27 dyn s^−1 cm and the PaCO2 (unanesthetized dogs; [9]) was 32 ± 1 Torr. It also gave a PaO2 (unanesthetized dogs; [9]) of 108 ± 2 Torr, a UNaV (unanesthetized dogs; [9]) of 1.4 ± 0.6 µmol·min and a UV (unanesthetized dogs; [9]) of 50 ± 9 μ min^−1 kg^−1. For the same compound, the VE (unanesthetized dogs; [9]) was 4.6 ± 0.3 L/min and the “effect on HPV in conscious dogs” value (Beagle dogs) was “totally abolished”.
